# Source: US20130259835A1, “BIFIDOBACTERIUM ADOLESCENTIS SPM0212 HAVING ANTIVIRAL ACTIVITY FOR HEPATITIS B VIRUS, AND PHARMACEUTICAL COMPOSITION FOR PREVENTING AND TREATING HEPATITIS B COMPRISING THEREOF” (SAHMYOOK UNIVERSITY INDUSTRY-ACADEMIC COOPERATION, priority 2011, published 2013)
# Key:
# Assay in all cases: Antibiotics sensitivity, agar dilution MIC
# Type in all cases: cell-based
# [1] = tested on: Bifidobacterium adolescentis SPM1606; conditions: strain SPM1606; Table 5
# Method: (§1) Antibiotics sensitivity test was performed for comparative analysis of phenotypes of the lactobacillus strain separated in Example 1 and standard strains purchased from KCTC. In order to find out the minimum inhibitory concentrations (MICs) of 18 kinds of antibiotics (ampicillin, mupirocin, amoxicillin/clavulanic acid, oxacillin, cefonicid, cefazolin, ceftazidime, cefotaxime, ceftriaxone, tigecyclin, streptomycin, vancomycin, teicoplanin, daptomycin, linezolid, clindamycin, quinupristin/dalfopristin and tobramycin), agar dilution method was performed according to the Clinical and Laboratory Standards Institute (CLSI, 2003), and the results were listed in Tables 4 and 5.
# [2] = tested on: Bifidobacterium longum KCTC3128; conditions: strain KCTC3128; Table 5
# Method: as §1
# [3] = tested on: Bifidobacterium adolescentis SPM1604; conditions: strain SPM1604; Table 5
# Method: as §1
# [4] = tested on: Bifidobacterium adolescentis SPM0212; conditions: strain SPM0212; Table 5
# Method: as §1
# [5] = tested on: Bifidobacterium longum SPM1205; conditions: strain SPM1205; Table 5
# Method: as §1
# [6] = tested on: Bifidobacterium adolescentis SPM1005; conditions: strain SPM1005; Table 5
# Method: as §1
# [7] = tested on: Bifidobacterium adolescentis SPM1608; conditions: strain SPM1608; Table 5
# Method: as §1
# [8] = tested on: Bifidobacterium adolescentis KCTC3352; conditions: strain KCTC3352; Table 5
# Method: as §1
# [9] = tested on: Bifidobacterium adolescentis SPM1605; conditions: strain SPM1605; Table 5
# Method: as §1
# [10] = tested on: Bifidobacterium pseudocatenulatum SPM1204; conditions: strain SPM1204; Table 5
# Method: as §1
# [11] = tested on: Bifidobacterium adolescentis SPM0214; conditions: strain SPM0214; Table 5
# Method: as §1
# [12] = tested on: Bifidobacterium adolescentis SPM0308; conditions: strain SPM0308; Table 5
# Method: as §1
# [13] = tested on: Bifidobacterium pseudocatenulatum SPM1309; conditions: strain SPM1309; Table 5
# Method: as §1
# [14] = tested on: Bifidobacterium adolescentis SPM1601; conditions: strain SPM1601; Table 5
# Method: as §1
# [15] = tested on: Bifidobacterium pseudocatenulatum KCTC3223; conditions: strain KCTC3223; Table 5
# Method: as §1
# [16] = tested on: Bifidobacterium longum SPM1206; conditions: strain SPM1206; Table 5
# Method: as §1
# [17] = tested on: Bifidobacterium adolescentis SPM1307-A; conditions: strain SPM1307-A; Table 5
# Method: as §1
# [18] = tested on: Bifidobacterium longum SPM1207; conditions: strain SPM1207; Table 5
# Method: as §1
Compound,Minimum inhibitory concentrations (MICs) [1],Minimum inhibitory concentrations (MICs) [2] [μl/Ml],Minimum inhibitory concentrations (MICs) [3],Minimum inhibitory concentrations (MICs) [4],Minimum inhibitory concentrations (MICs) [5],Minimum inhibitory concentrations (MICs) [6] [μl/Ml],Minimum inhibitory concentrations (MICs) [7],Minimum inhibitory concentrations (MICs) [8] [μl/Ml],Minimum inhibitory concentrations (MICs) [9] [μl/Ml],Minimum inhibitory concentrations (MICs) [10] [μl/Ml],Minimum inhibitory concentrations (MICs) [11] [μl/Ml],Minimum inhibitory concentrations (MICs) [12],Minimum inhibitory concentrations (MICs) [13] [μl/Ml],Minimum inhibitory concentrations (MICs) [14] [μl/Ml],Minimum inhibitory concentrations (MICs) [15] [μl/Ml],Minimum inhibitory concentrations (MICs) [16] [μl/Ml],Minimum inhibitory concentrations (MICs) [17] [μl/Ml],Minimum inhibitory concentrations (MICs) [18] [μl/Ml]
"CN[C@H](CC(C)C)C(=O)N[C@H]1C(=O)N[C@@H](CC(N)=O)C(=O)N[C@H]2C(=O)N[C@H]3C(=O)N[C@H](C(=O)N[C@H](C(=O)O)c4cc(O)cc(O)c4-c4cc3ccc4O)[C@H](O)c3ccc(c(Cl)c3)Oc3cc2cc(c3O[C@@H]2O[C@H](CO)[C@@H](O)[C@H](O)[C@H]2O[C@H]2C[C@](C)(N)[C@H](O)[C@H](C)O2)Oc2ccc(cc2Cl)[C@H]1O [VAN, vancomycin]",≦0.06 μl/Ml,4,≦0.06 μl/Ml,2 μl/Ml,2 μl/Ml,2,2 μl/Ml,2,2,2,2,2 μl/Ml,2,2,4,2,2,2
"CCCCCCCCCC(=O)N[C@@H](Cc1c[nH]c2ccccc12)C(=O)N[C@H](CC(N)=O)C(=O)N[C@@H](CC(=O)O)C(=O)N[C@@H]1C(=O)NCC(=O)N[C@@H](CCCN)C(=O)N[C@@H](CC(=O)O)C(=O)N[C@H](C)C(=O)N[C@@H](CC(=O)O)C(=O)NCC(=O)N[C@H](CO)C(=O)N[C@@H]([C@H](C)CC(=O)O)C(=O)N[C@@H](CC(=O)c2ccccc2N)C(=O)O[C@@H]1C [DAP, daptomycin]",0.12 μl/Ml,16,4 μl/Ml,4 μl/Ml,2 μl/Ml,1,8 μl/Ml,16,4,2,2,0.25 μl/Ml,4,4,16,4,8,
"[H]/N=C(/N)N[C@H]1[C@H](O)[C@@H](O)[C@H](O[C@@H]2O[C@@H](C)[C@](O)(C=O)[C@H]2O[C@@H]2O[C@@H](CO)[C@H](O)[C@@H](O)[C@@H]2NC)[C@@H](N/C(N)=N\[H])[C@@H]1O [STR, streptomycin]",0.25 μl/Ml,128,≦0.06 μl/Ml,128 μl/Ml,8 μl/Ml,32,32 μl/Ml,128,32,128,32,32 μl/Ml,32,64,128,8,64,

# Further lines, with some results ahead:
Minimum inhibitory concentrations (MICs) [1],Minimum inhibitory concentrations (MICs) [2] [μl/Ml],Minimum inhibitory concentrations (MICs) [3],Minimum inhibitory concentrations (MICs) [4],Minimum inhibitory concentrations (MICs) [5],Minimum inhibitory concentrations (MICs) [6] [μl/Ml],Minimum inhibitory concentrations (MICs) [7],Minimum inhibitory concentrations (MICs) [8] [μl/Ml],Minimum inhibitory concentrations (MICs) [9] [μl/Ml],Minimum inhibitory concentrations (MICs) [10] [μl/Ml],Minimum inhibitory concentrations (MICs) [11] [μl/Ml],Minimum inhibitory concentrations (MICs) [12],Minimum inhibitory concentrations (MICs) [13] [μl/Ml],Minimum inhibitory concentrations (MICs) [14] [μl/Ml],Minimum inhibitory concentrations (MICs) [15] [μl/Ml],Minimum inhibitory concentrations (MICs) [16] [μl/Ml],Minimum inhibitory concentrations (MICs) [17] [μl/Ml],Compound,Minimum inhibitory concentrations (MICs) [18] [μl/Ml]
2 μl/Ml,8,1 μl/Ml,8 μl/Ml,2 μl/Ml,4,8 μl/Ml,8,4,8,0.25,2 μl/Ml,2,8,8,1,8,"CC(=O)NC[C@H]1CN(c2ccc(N3CCOCC3)c(F)c2)C(=O)O1 [LNZ, linezolid]",
16 μl/Ml,>128,16 μl/Ml,>128 μl/Ml,4 μl/Ml,32,128 μl/Ml,>128,16,128,32,32 μl/Ml,>128,32,>128,32,64,"NC[C@H]1O[C@H](O[C@H]2[C@H](O)[C@@H](O[C@H]3O[C@H](CO)[C@@H](O)[C@H](N)[C@H]3O)[C@H](N)C[C@@H]2N)[C@H](N)C[C@@H]1O [TOB, tobramycin]",
4 μl/Ml,4,4 μl/Ml,4 μl/Ml,4 μl/Ml,32,8 μl/Ml,4,4,>128,32,32 μl/Ml,8,16,8,8,4,"CCC[C@@H]1C[C@@H](C(=O)N[C@@H]([C@H]2O[C@H](SC)[C@H](O)[C@@H](O)[C@H]2O)[C@H](C)Cl)N(C)C1 [CLI, clindamycin]",
0.12 μl/Ml,0.5,≦0.06 μl/Ml,≦0.06 μl/Ml,≦0.06 μl/Ml,0.5,≦0.06 μl/Ml,0.5,0.5,0.5,0.25,≦0.06 μl/Ml,0.25,0.25,0.5,0.12,0.25,"CN(C)c1cc(NC(=O)CNC(C)(C)C)c(O)c2c1C[C@H]1C[C@H]3[C@H](N(C)C)C(O)=C(C(N)=O)C(=O)[C@@]3(O)C(O)=C1C2=O [TIG, tigecyclin]",
